Laboratory results reported in patent publication US8674070B2, “Cancer-targeting peptides and uses thereof in cancer therapy” (Academia Sinica, priority 2009, dated 2014).

Tests used:
[1] = Total white blood cell count in treated tumor-bearing mice; assay type: in vivo, SCID mice; conditions: three days after the last treatment (day 17); doxorubicin 3 mg/kg weekly x3
Method: The total white blood cell (WBC) numbers in the treated mice were determined three days after the last treatment (i.e., on day 17) as follows. […] The blood was then mixed with a red blood cell lysis buffer containing 2% acetic acid and 1% of Gentian violet (Sigma-Aldrich, Saint Louis, Mo., USA) and incubated at room temperature. The number of the WBCs was countered using a hemacytometer.

[2] = system: tumor blood vessels; experiment: Tumor blood vessel staining with tomato lectin; assay type: in vivo, SCID mice; conditions: doxorubicin 3 mg/kg weekly x3; FIG. 3 Panel B
Description: Tumor tissues were removed from the treated mice, fixed with 4% paraformaldehyde and embedded with paraffin. Blood vessels in the tumor tissues were detected by staining with Lycopersicon esculentum (tomato) lectin conjugated to biotin (Vector, CA, USA) and then with streptavidin-conjugated rhodamine (Pierce, Ill., USA).

[3] = Doxorubicin localization in tumor tissues of treated mice; assay type: in vivo, SCID mice; conditions: 2 mg/kg tail vein
Description: At selected time points, three mice in each group were anaesthetized and sacrificed.

[4] = system: BT483 breast cancer xenografts; experiment: Treatment of breast tumor xenografts: tumor volume; assay type: in vivo, SCID mice; conditions: doxorubicin 3 mg/kg once a week for three weeks, tail vein; n=6, P<0.005
Method: SCID mice (4-6 weeks of age) were injected s.c. in the dorsolateral flank with 1×10^7 BT483 cells to induce breast cancer xenografts. The tumor volumes in these mice were determined by the formula: length×[…]×0.52. The mice bearing xenograft tumors at a size of around 50-100 mm^3 were randomly assigned to four groups, each of which was treated as follows via administration through their tail veins.
Group 1: treated with SP90 conjugated doxorubicin-containing liposomes (SP90-LD) at a doxorubicin dosage of 3 mg/kg, once a week for three weeks,
Group 2: treated with doxorubicin-containing liposomes (LD), at a doxorubicin dosage of 3 mg/kg, once a week for three weeks,
Group 3: treated with free doxorubicin (FD), at a doxorubicin dosage of 3 mg/kg, once a week for three weeks, and
Group 4: treated with saline once a week for three weeks (blank control).
Mouse body weights and tumor sizes were measured twice a week. Tumor volumes were calculated following the formula described above.

[5] = system: cancer cells in breast cancer tissue samples; experiment: Peptide competition assay on cancer tissue samples; assay type: binding, human; conditions: peptide 100 ng/ml; PC90 10^9 pfu
Method: The cancer targeting activity of PC90 was confirmed by a peptide competition assay, in which the cancer tissue samples were incubated with (1) the synthetic peptide (100 ng/ml) SMDPFLFQLLQL (SEQ ID NO:5) (SP90) and PC90 (10^9 pfu) or (2) the control peptide (100 ng/ml) RLLDTNRPLLPY (SEQ ID NO:6; see Lee et al., cancer Res. 64:8002-8008, 2004) and PC90. SP90 and the control peptide were synthesized and purified by reverse-phase high-performance liquid chromatography. The resultant peptides, having a purity of greater than 95%, were conjugated, if necessary, with FITC or biotin at their N-termini.

[6] = system: breast tumor xenografts; experiment: In vivo peptide competition: co-injection with PC90 in mice bearing breast tumor xenografts; conditions: 100 μg peptide co-injected with PC90
Method: SP90 was co-administered to test its ability of blocking PC90 from binding to the tumor tissues. Briefly, 100 μg SP90 or the control peptides described above were co-injected with PC90 to mice bearing breast tumor xenografts. The normal organs and tumor tissues were removed and fixed in Bouin's solution (Sigma, Mo., USA). After fixation, the samples were embedded in paraffin blocks, sliced to sections, and the sections were deparaffinized, rehydrated, and subjected to immunostaining using the mouse anti-M13 mAb described in Example 1 above.

| total number of the WBCs [1] | areas of tumor tissue in which doxorubicin was detected (autofluorescence) [3] | Compound | number of tumor vessels / tumor vascular density (lectin staining) [2] | average tumor volume, fold larger than that of the Group 2 mice [4] [fold] | competition against PC90 for binding to the cancer cells in the tissue samples [5] | inhibition of PC90 binding to the tumor tissues [6] |
| --- | --- | --- | --- | --- | --- | --- |
| 5.6×10^3 /mm^3 | detected only in limited areas | COc1cccc2c1C(=O)c1c(O)c3c(c(O)c1C2=O)C[C@@](O)(C(=O)CO)C[C@@H]3O[C@H]1C[C@H](N)[C@H](O)[C@H](C)O1 [FD, doxorubicin] | high tumor vascular density | 8.3 | – | – |
| – | – | RLLDTNRPLLPY [control peptide] | – | – | not | did not exhibit any inhibitory activity |
| – | – | SMDPFLFQLLQL [SP90] | – | – | competed against PC90 for binding to the cancer cells | 97% |
